Results reported in patent US8211929B2, “Pyrimidine derivatives as kinase modulators and method of use” (Exelixis, Inc., priority 2004, dated 2012).
Like-named read-outs stand apart in the source and are kept apart here.

Key:
[1] = target: T1, IGF 3P (Homo sapiens, UniProt P08069); assay: IGF1R kinase assay (LCCA), IGF 3P; format: biochemical
T1 construct: human IGF1R kinase domain residues M954-C1367; made in house; host or cells: baculovirus expression (insect cells)
Protocol: (§1) Kinase activity and compound inhibition are investigated using one or more of the three assay formats described below. The ATP concentrations for each assay are selected to be close to the Michaelis-Menten constant (KM) for each individual kinase. Dose-response experiments are performed at 10 different inhibitor concentrations in a 384-well plate format. […] Y=Min+(Max−Min)/(1+(X/IC50)^H) Equation (2)
(§2) IGF1R kinase biochemical activity was assessed using a Luciferase-Coupled Chemiluminescent Kinase assay (LCCA) format. Kinase activity was measured as the percent ATP remaining following the kinase reaction. Remaining ATP was detected by luciferase-luciferin-coupled chemiluminescence. Specifically, the reaction was initiated by mixing test compounds, 3 μM ATP, 4 μM poly EY peptide and 4 nM IGF1R (baculovirus expressed human IGF1R kinase domain residues M954-C1367) in a 20 uL assay buffer (20 mM Tris-HCL pH7.5, 10 mM MgCl2, 0.02% Triton X-100, 1 mM DTT, 2 mM MnCl2). The mixture is incubated at ambient temperature for 2 hours after which 20 uL luciferase-luciferin mix is added and the chemiluminescent signal read using a Wallac Victor^2 reader.

[2] = target: T2, (Homo sapiens, UniProt P08069); assay: IGF1R kinase assay (LCCA), IGF 0P; format: biochemical
T2 construct: human IGF1R kinase domain residues M954-C1367; made in house; host or cells: baculovirus expression (insect cells)
Protocol: as §1, §2

T1 sequence (P08069 954-1367): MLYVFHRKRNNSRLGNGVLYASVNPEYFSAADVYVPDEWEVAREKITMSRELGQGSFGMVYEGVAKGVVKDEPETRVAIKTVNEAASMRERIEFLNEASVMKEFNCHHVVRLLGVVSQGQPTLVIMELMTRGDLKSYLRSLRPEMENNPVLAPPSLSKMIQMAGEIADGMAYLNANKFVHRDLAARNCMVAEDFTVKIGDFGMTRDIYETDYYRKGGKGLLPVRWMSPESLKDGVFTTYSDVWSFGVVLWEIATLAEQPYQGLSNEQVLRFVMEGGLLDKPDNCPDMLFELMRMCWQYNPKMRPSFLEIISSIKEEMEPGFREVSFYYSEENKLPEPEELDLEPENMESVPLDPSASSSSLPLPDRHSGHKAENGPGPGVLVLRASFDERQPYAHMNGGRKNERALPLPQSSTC
T2 sequence (P08069 954-1367): as above

SMILES | IC50 ([1]; IGF1R kinase LCCA assay) [µM] | IC50 ([2]; IGF1R kinase LCCA assay) [µM] | also measured
Cc1cc(Nc2cc(C3CC3)[nH]n2)nc(NCc2cc(C(=O)N3CCN(C)CC3)no2)n1 [Example 555] | 0.5 to 5 | 0.5 to 5 | 
Cc1cc(Nc2cc(C3CC3)n[nH]2)nc(NCc2nc(C(=O)NCCc3cccc(Cl)c3)cs2)n1 [Example 570] | 0.5 to 5 | 0.5 to 5 | 
Brc1cnc(Nc2ccc(N3CCNCC3)cc2)nc1Nc1cc(C2CC2)n[nH]1 [Example 255] | 0.5 to 5 | > 5 | 
Cc1cc(C)cc(Nc2ncc(Br)c(Nc3cc(C4CC4)n[nH]3)n2)c1 [Example 134] | 0.05 to 0.5 | 0.5 to 5 | 
CCN(CC)CCNC(=O)CCc1ccc(Nc2ncc(Br)c(Nc3ccccc3)n2)cc1 [Example 541] | < 0.05 | 0.05 to 0.5 | 
CCN(CC)CCCNc1cc(Nc2cc(C3CC3)n[nH]2)nc(Nc2ccccc2Cl)n1 [Example 182] | 0.5 to 5 | 0.5 to 5 | 
Cc1cc(Nc2cc(C3CC3)n[nH]2)nc(Nc2ccc3c(c2)CC(N)C3)n1 (stereo not drawn) [Example 546] | 0.05 to 0.5 | 0.5 to 5 | 
CCN(CC)CCNC(=O)c1ccc2cc(Nc3nc(C)cc(Nc4cc(C5CC5)n[nH]4)n3)ccc2c1 [Example 59] | < 0.05 | 0.05 to 0.5 | 
Nc1ncnc2c1c(-c1ccc(NC(=O)C3(C(=O)Nc4ccc(F)cc4)CC3)cc1)cn2C1CC(CN2CCCC2)C1 (stereo not drawn) [Example 343] | 0.5 to 5 | 0.5 to 5 | 
Clc1ccc(-c2ccc(CNc3ncc(Br)c(Nc4cc(C5CC5)n[nH]4)n3)s2)cc1 [Example 324] | > 5 | > 5 | 
CC(C)c1cc(Nc2cc(N3CCOCC3)nc(NCc3cc(-c4ccccc4)no3)n2)n[nH]1 [Example 496] | < 0.05 | 0.05 to 0.5 | 
Cc1cc(Nc2cc(C3CC3)n[nH]2)nc(Nc2ccc3cc(C(=O)NCCN4CCCC4)ccc3c2)n1 [Example 49] | < 0.05 | 0.05 to 0.5 | 
CC(C)(C)c1cc(Nc2nc(NCc3cc(-c4ccccc4)no3)ncc2Br)n[nH]1 [Example 16] | 0.5 to 5 | 0.05 to 0.5 | 
FC(F)(F)c1cc(Br)cc(Nc2ncc(Br)c(Nc3cc(C4CC4)n[nH]3)n2)c1 [Example 305] | > 5 | > 5 | 
Cc1cc(Nc2cc(C3CC3)[nH]n2)nc(NCc2cc(C(C)C)no2)n1 [Example 50] | < 0.05 | 0.5 to 5 | 
NC(=O)c1c[nH]nc1Nc1nc(Nc2ccccc2Cl)ncc1Br [Example 332] | > 5 | > 5 | 
CC(=O)N1CCC(n2cc(-c3cccc(OCc4ccccc4)c3)c3c(N)ncnc32)CC1 [Example 349] | > 5 | > 5 | 
Cc1cc(Nc2cc(C3CC3)[nH]n2)nc(NCc2cc(-c3ccc(F)cc3F)no2)n1 [Example 622, N^4-(5-cyclopropyl-1H-pyrazol-3-yl)-N^2-{[3-(2,4-difluorophenyl)isoxazol-5-yl]methyl}-6-methylpyrimidine-2,4-diamine] |  |  | IC50 [1]: < 0.05 µM; IC50 [2]: 0.05 to 0.5 µM
N#Cc1ccc(Nc2ncc(Cl)c(Nc3cc(C4CC4)[nH]n3)n2)cc1 [Example 117] | 0.05 to 0.5 | 0.05 to 0.5 | 
Cc1cc(Nc2cc(C3CC3)[nH]n2)nc(NCc2cc(-c3cccnc3)no2)n1 [Example 610, N^4-(5-cyclopropyl-1H-pyrazol-3-yl)-6-methyl-N^2-[(3-pyridin-3-ylisoxazol-5-yl)methyl]pyrimidine-2,4-diamine] |  |  | IC50 [1]: < 0.05 µM; IC50 [2]: 0.05 to 0.5 µM
Brc1cnc(Nc2ccccc2I)nc1Nc1cc(C2CC2)n[nH]1 [Example 96] | 0.05 to 0.5 | 0.05 to 0.5 | 
CCc1cc(CNc2nc(Nc3cc(C4CC4)n[nH]3)cc(N3CCOCC3)n2)on1 [Example 656, N^4-(3-cyclopropyl-1H-pyrazol-5-yl)-N^2-[(3-ethylisoxazol-5-yl)methyl]-6-morpholin-4-ylpyrimidine-2,4-diamine] |  |  | IC50 [1]: < 0.05 µM; IC50 [2]: 0.05 to 0.5 µM
COc1cc(Nc2ncc(Br)c(Nc3cc(C)on3)n2)cc(OC)c1 [Example 53] | < 0.05 | 0.05 to 0.5 | 
NC(=O)c1ccc(Oc2ncc(Br)c(Nc3cc(C4CC4)n[nH]3)n2)cc1 [Example 158] | 0.5 to 5 | 0.5 to 5 | 
Cc1cc(Nc2cc(C3CC3)n[nH]2)nc(Nc2cc(Cl)cc(Cl)c2)n1 [Example 274] | > 5 | 0.5 to 5 | 
CC(=O)NCC=CCn1cc(-c2cccc(OCc3ccccc3)c2)c2c(N)ncnc21 [Example 345] |  |  | IC50 ([1]; IGF1R kinase LCCA assay, IGF 3P): 0.5 to 5 µM; IC50 ([2]; IGF1R kinase LCCA assay, IGF 0P): > 5 µM
Brc1cnc(Nc2ccc3c(c2)OCCO3)nc1Nc1cc(C2CC2)n[nH]1 [Example 104] | 0.05 to 0.5 | 0.05 to 0.5 | 
